Experiment [1] in a line: Cytotoxicity against human HL60/MX2 cells after 72 hrs by MTT assay. It counts as functional, cell-based. Conditions: HL60/MX2, 72 h. (In general: Formazan colour is commonly taken as a measure of viable cells.)
Experiment [2] has as its system Calf thymus DNA. As to the kind of experiment: Binding affinity to calf thymus DNA assessed as change in melting temperature at 10 uM. It counts as nucleic-acid assay. Conditions: Bos taurus.
The test system of experiment [3] is Nucleic Acid. Nature of the experiment: Binding affinity to [poly(dAdT)]2 DNA assessed as change in melting temperature at 10 uM. It counts as nucleic-acid assay.
Experiment [4] deals with Calf thymus DNA. Nature of the experiment: Binding affinity to calf thymus DNA assessed as change in melting temperature at 20 uM. It counts as nucleic-acid assay. Conditions: Bos taurus.
The next experiment concerns HL-60. As to the kind of experiment: Cytotoxicity against human topoisomerase 2-sensitive HL60 cells after 72 hrs by MTT assay. In kind it is functional, cell-based. The conditions noted are these: HL-60, 72 h.
The subject of experiment [5] is Nucleic Acid. Nature of the experiment: Binding affinity to [poly(dAdT)]2 DNA assessed as change in melting temperature at 20 uM. It counts as nucleic-acid assay.
In experiment [6] the target is T1, DNA topoisomerase 1 (Homo sapiens) (UniProt P11387).
T1 sequence (whole entry): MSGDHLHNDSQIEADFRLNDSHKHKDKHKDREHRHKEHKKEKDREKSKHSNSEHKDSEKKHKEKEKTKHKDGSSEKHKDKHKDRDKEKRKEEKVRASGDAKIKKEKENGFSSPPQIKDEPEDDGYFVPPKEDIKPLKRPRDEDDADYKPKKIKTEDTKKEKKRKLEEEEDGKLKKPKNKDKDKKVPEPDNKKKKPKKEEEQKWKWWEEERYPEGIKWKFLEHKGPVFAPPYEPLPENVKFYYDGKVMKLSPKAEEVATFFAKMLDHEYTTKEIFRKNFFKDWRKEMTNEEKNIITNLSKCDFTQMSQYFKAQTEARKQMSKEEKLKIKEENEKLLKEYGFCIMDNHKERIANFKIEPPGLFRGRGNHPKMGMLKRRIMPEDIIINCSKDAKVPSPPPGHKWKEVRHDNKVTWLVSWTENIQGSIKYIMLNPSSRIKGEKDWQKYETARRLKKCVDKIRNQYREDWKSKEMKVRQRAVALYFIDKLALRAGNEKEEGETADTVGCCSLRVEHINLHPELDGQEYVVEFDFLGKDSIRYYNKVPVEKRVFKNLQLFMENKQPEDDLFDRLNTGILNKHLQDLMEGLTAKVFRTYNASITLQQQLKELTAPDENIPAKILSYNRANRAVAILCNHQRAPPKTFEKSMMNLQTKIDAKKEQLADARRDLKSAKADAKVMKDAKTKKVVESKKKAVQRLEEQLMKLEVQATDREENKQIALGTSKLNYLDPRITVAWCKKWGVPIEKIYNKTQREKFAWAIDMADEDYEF
As to the kind of experiment: Inhibition of human topoisomerase 1-mediated relaxation of pUC18 DNA assessed as formation of nicked DNA up to 50 uM using ethidium bromide staining by agarose gel electrophoresis.

Experiment [7] has as its target DNA topoisomerase 2-alpha (Homo sapiens) (UniProt P11388). As to the kind of experiment: Inhibition of human topoisomerase 2-mediated relaxation of pUC18 DNA assessed as formation of nicked DNA at 50 uM using ethidium bromide staining by agarose gel electrophoresis.

The source made the active and inactive calls. No cut-off for these calls is given here. Where only a bound is given, the exact number is not on record here.

DNA topoisomerase 2-alpha (Homo sapiens), sequence (P11388 whole entry): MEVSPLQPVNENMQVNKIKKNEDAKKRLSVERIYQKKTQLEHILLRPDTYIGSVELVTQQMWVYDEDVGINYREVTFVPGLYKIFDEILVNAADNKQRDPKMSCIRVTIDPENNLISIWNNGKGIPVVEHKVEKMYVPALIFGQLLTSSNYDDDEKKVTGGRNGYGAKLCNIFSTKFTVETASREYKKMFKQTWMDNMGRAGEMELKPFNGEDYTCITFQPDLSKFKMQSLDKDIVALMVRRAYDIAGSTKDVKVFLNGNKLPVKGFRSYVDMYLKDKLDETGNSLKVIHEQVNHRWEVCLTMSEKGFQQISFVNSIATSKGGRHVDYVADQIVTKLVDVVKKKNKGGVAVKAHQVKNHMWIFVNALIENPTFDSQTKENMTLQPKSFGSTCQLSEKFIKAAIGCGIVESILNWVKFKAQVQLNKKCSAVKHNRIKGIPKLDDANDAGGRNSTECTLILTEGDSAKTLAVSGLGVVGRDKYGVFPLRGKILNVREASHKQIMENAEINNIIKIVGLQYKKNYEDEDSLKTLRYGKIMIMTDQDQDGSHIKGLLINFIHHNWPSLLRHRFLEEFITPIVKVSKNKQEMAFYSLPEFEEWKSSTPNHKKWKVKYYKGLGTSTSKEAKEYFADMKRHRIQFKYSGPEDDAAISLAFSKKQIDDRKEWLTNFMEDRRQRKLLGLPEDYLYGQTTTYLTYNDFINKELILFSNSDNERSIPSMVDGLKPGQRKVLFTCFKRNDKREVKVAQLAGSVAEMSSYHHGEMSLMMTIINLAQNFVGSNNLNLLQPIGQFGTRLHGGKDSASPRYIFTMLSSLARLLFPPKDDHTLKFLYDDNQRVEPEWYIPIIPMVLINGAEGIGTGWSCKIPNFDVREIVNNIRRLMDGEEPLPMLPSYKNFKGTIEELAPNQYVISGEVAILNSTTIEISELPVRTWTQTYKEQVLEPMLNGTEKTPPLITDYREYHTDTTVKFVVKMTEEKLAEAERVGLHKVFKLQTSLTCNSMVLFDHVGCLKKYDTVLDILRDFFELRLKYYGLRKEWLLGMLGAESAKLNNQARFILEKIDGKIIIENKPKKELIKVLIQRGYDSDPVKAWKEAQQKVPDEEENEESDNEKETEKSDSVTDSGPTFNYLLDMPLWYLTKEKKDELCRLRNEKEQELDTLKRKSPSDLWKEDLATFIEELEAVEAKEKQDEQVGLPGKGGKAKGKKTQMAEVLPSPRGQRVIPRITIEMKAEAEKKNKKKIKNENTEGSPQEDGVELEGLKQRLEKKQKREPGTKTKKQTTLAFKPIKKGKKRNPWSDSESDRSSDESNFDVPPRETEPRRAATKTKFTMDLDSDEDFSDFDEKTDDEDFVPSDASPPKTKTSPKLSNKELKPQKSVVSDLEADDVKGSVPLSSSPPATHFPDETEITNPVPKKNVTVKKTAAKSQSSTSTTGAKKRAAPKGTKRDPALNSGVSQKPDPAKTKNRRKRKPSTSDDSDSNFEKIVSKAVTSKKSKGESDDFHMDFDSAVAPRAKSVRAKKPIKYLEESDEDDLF

The term IC50 denotes the concentration that inhibits the measured activity by half. A higher IC50 goes with weaker potency in that assay. In general, ΔTm refers to the change in melting temperature against a reference sample. As for `COc1cc([C@@H]2c3cc4c(cc3[C@@H](O[C@@H]3O[C@@H]5CO[C@@H](C)O[C@H]5[C@H](O)[C@H]3O)[C@H]3COC(=O)[C@H]23)OCO4)cc(OC)c1O` [ETOPOSIDE], the IC50 is 11.9 µM in experiment [1] and 1.3 µM with HL-60. In addition, the thermal shift (ΔTm) in the experiment on Calf thymus DNA [2], in the experiment on Nucleic Acid [3], in the experiment on Calf thymus DNA [4] and in the experiment with Nucleic Acid [5] was 0 °C each time.
The term inhibition denotes the relative decrease from the control value, in per cent. With `CN(C)CCNc1nc2c([nH]c3ccccc32)c(=O)[nH]1`, the IC50 (in experiment [1]; in the experiment on HL-60) was over 100 µM in each case. Also, in experiment [6], the inhibition result was “inactive”. For the same compound, the ΔTm in the experiment with Calf thymus DNA [2] was 0.4 °C; in the experiment with Nucleic Acid [3] it was 4.4 °C; with Calf thymus DNA [4] it was 0 °C; in the experiment with Nucleic Acid [5], 3 °C. Also, the inhibition in experiment [7] is 10%.
In the case of `CCn1c2ccccc2c2c3c(=O)[nH]c(NCCN(C)C)nc3ccc21`, the IC50 (in experiment [1]; with HL-60) was 17 µM in each case. Moreover, the inhibition entry in experiment [6] is “inactive”. In addition, the ΔTm was 3 °C with Calf thymus DNA [2], 15.9 °C in the experiment with Nucleic Acid [3], 2.3 °C in the experiment with Calf thymus DNA [4] and 15.4 °C in the experiment with Nucleic Acid [5].
